We go through 19 compounds from ChEMBL document CHEMBL5257024, “Synthesis of α,β-Unsaturated Carbonyl-Based Compounds, Oxime and Oxime Ether Analogs as Potential Anticancer Agents for Overcoming Cancer Multidrug Resistance by Modulation of Efflux Pumps in Tumor Cells” (J Med Chem, 2016).

In one series the test system is PC-3. In words: cells. Particulars: Homo sapiens, PC-3, 48 h.
The test system of a further series is NCI-H460. Description: cells. Particulars: Homo sapiens, NCI-H460, 48 h.
The test system of the next series is HT-29. In words: cells. Particulars: Homo sapiens, HT-29, 48 h.
In a further series the test system is MCF7. Description: Antiproliferative activity against human MCF7 cells assessed as inhibition of cell growth incubated for 48 hrs by propidium iodide staining based fluorometer assay. Particulars: MCF7, 48 h. The format is functional.
A further series has as its system MIA PaCa-2. In words: Antiproliferative activity against human MIA PaCa-2 cells assessed as inhibition of cell growth incubated for 48 hrs by propidium iodide staining based fluorometer assay. The settings on record: MIA PaCa-2, 48 h. Type of series: functional.
The test system of a further series is A549. Description: Antiproliferative activity against human A549 cells assessed as inhibition of cell growth incubated for 48 hrs by propidium iodide staining based fluorometer assay. Type of series: functional. Particulars: A549, 48 h.
For another series, the system named is PANC-1. Description: cells. Particulars: Homo sapiens, PANC-1, 48 h.
A short description of series [1]: Cytotoxicity against human MCF-10A cells assessed as cell viability incubated for 96 hrs by MTT assay. Particulars: read-out: Activity. Further details: concentration or dose not given beside the values. The format is toxicity, cell-based. A general note: Tetrazolium dyes change colour on reduction, which living cells bring about.

The pIC50 is −log10 of the IC50, conventionally taken in molar units.

pIC50: −log10 of the molar value.

Description for HT-29: Antiproliferative activity against human HT-29 cells assessed as inhibition of cell growth incubated for 48 hrs by propidium iodide staining based fluorometer assay
Description for NCI-H460: Antiproliferative activity against human NCI-H460 cells assessed as inhibition of cell growth incubated for 48 hrs by propidium iodide staining based fluorometer assay
Description for PANC-1: Antiproliferative activity against human PANC-1 cells assessed as inhibition of cell growth incubated for 48 hrs by propidium iodide staining based fluorometer assay
Description for PC-3: Antiproliferative activity against human PC-3 cells assessed as inhibition of cell growth incubated for 48 hrs by propidium iodide staining based fluorometer assay

With `COc1cccc(/C=C2\CCc3ccc(Cl)cc3C2=O)c1Cl`, the pIC50 with PC-3 was 4.86; in the series on NCI-H460 it was 4.88; in the series on HT-29, 4.90; in the series on MCF7 it was 4.85; in the series with MIA PaCa-2, 4.89; with A549, 4.88. Also, the pIC50 in the series on PANC-1 was 4.91. In addition, in series [1], the viability at 96 h was 94%.

For `COc1ccc(/C=C2\CCc3c(O)cccc3C2=O)c(Cl)c1OC`, the pIC50 with PC-3 is 5.46; in the series on NCI-H460, 5.42; with HT-29, 5.52; with MCF7, 5.51; with MIA PaCa-2, 5.49; in the series with A549, 5.48. The compound further showed a pIC50 in the series on PANC-1 of 5.44. The viability at 96 h in series [1] came out at 91%.

Take `COc1cccc(/C=C2\CCC/C(=C\c3cccc(OC)c3Cl)C2=O)c1Cl`: the pIC50 is 5.19 with PC-3; 5.27 with NCI-H460; 5.21 in the series on HT-29; 5.19 with MCF7; 5.14 in the series on MIA PaCa-2; 5.09 in the series with A549. Besides, the pIC50 with PANC-1 was 5.16. Also, the viability at 96 h in series [1] was 90%.

Regarding `COc1cccc(/C=C2\CN(Cc3ccccc3)C/C(=C\c3cccc(OC)c3Cl)C2=O)c1Cl`, the negative-log IC50 (pIC50) in the series with PC-3 was 4.73; with NCI-H460 it was 4.85; with HT-29 it was 4.80; with MCF7, 4.75; with MIA PaCa-2, 4.77; in the series with A549 it was 4.81. The negative logarithm of the IC50 (pIC50) in the series with PANC-1 was 4.76. Also, the viability at 96 h in series [1] is 89%.

`COc1ccc(/C=C2\CNC/C(=C\c3ccc(OC)c(OC)c3Cl)C2=O)c(Cl)c1OC`: the pIC50 in the series on PC-3 was 5.15; in the series on NCI-H460, 5.14; in the series on HT-29, 5.18; with MCF7 it was 5.19; with MIA PaCa-2, 5.21; in the series with A549, 5.12. Besides, in the series on PANC-1, the pIC50 is 5.19. The viability at 96 h in series [1] worked out at 92%.

With `COc1cc2c(cc1OC)C(=O)/C(=C/c1cccc(OC)c1Cl)CC2`, the pIC50 is 5.04 in the series on PC-3; 5.04 with NCI-H460; 4.98 with HT-29; 4.98 with MCF7; 5.00 with MIA PaCa-2; 5.04 in the series with A549. In the series with PANC-1, this compound had a pIC50 of 5.02. In series [1], the viability at 96 h turned out to be 91%.

Consider `COc1cccc(/C=C2\CCc3ccc(Br)cc3C2=O)c1Cl`, for which the pIC50 in the series with PC-3 was 4.86; with NCI-H460, 4.89; in the series on HT-29 it was 4.85; with MCF7 it was 4.85; in the series with MIA PaCa-2, 4.89; in the series on A549, 4.88. Moreover, the pIC50 in the series on PANC-1 is 4.87. In addition, the viability at 96 h in series [1] came to 94%.

Take `COc1cc(/C=C2\CCc3ccc(F)cc3C2=O)c(Br)c(OC)c1OC`: the negative-log IC50 (pIC50) in the series on PC-3 was 4.99; with NCI-H460, 5.05; in the series on HT-29, 5.02; with MCF7 it was 5.00; in the series with MIA PaCa-2, 5.05; in the series on A549 it was 5.09. This compound showed a pIC50 with PANC-1 of 5.07. In addition, the viability at 96 h in series [1] is 93%.

For `COc1ccc(/C=C2\COC/C(=C\c3ccc(OC)c(OC)c3Cl)C2=O)c(Cl)c1OC`, the pIC50 was 5.29 with PC-3; 5.28 in the series on NCI-H460; 5.29 in the series with HT-29; 5.25 in the series with MCF7; 5.28 in the series with MIA PaCa-2; 5.24 with A549. The compound further had a pIC50 with PANC-1 of 5.24. Also, in series [1], the viability at 96 h came to 89%.

For `COc1cc(/C=C2\CCc3ccc(Br)cc3C2=O)c(Br)c(OC)c1OC`, the pIC50 in the series with PC-3 is 5.03; in the series on NCI-H460, 4.96; in the series on HT-29, 5.04; with MCF7, 4.96; in the series on MIA PaCa-2, 5.05; in the series on A549, 5.04. In the series with PANC-1, this compound had a pIC50 of 5.00. The viability at 96 h in series [1] was determined as 92%.

As for `COc1cc(/C=C2\CN(Cc3ccccc3)C/C(=C\c3cc(OC)c(OC)c(OC)c3Br)C2=O)c(Br)c(OC)c1OC`, the pIC50 in the series on PC-3 was 4.84; in the series with NCI-H460, 4.91; in the series on HT-29 it was 4.92; in the series with MCF7, 4.89; in the series with MIA PaCa-2, 4.92; with A549 it was 4.95. The compound further gave a pIC50 in the series with PANC-1 of 4.91. Further, the viability at 96 h in series [1] was determined as 91%.

For `COc1cccc(/C=C2\CCc3c(O)cccc3C2=O)c1Cl`, the pIC50 is 5.28 with PC-3; 5.31 with NCI-H460; 5.29 in the series with HT-29; 5.36 with MCF7; 5.31 in the series with MIA PaCa-2; 5.36 in the series with A549. In the series on PANC-1, this compound showed a pIC50 of 5.38. The viability at 96 h in series [1] was determined as 96%.

Turning to `COc1cccc(/C=C2\CC(C)c3ccccc3C2=O)c1Cl` (configuration not stated), the pIC50 in the series with PC-3 was 5.00; in the series on NCI-H460, 5.02; in the series on HT-29, 5.08; with MCF7 it was 5.06; in the series on MIA PaCa-2, 5.01; in the series on A549 it was 5.06. The same compound had a pIC50 in the series with PANC-1 of 5.08. Besides, the viability at 96 h in series [1] came to 98%.

In the case of `COc1ccc2c(c1)CC/C(=C\c1cc(OC)c(OC)c(OC)c1Br)C2=O`, the pIC50 in the series with PC-3 is 5.82; with NCI-H460, 5.72; in the series on HT-29, 5.82; with MCF7 it was 5.72; in the series with MIA PaCa-2, 5.80; in the series with A549, 5.72. In addition, the negative-log IC50 (pIC50) in the series on PANC-1 was 5.85. For the same compound, the viability at 96 h in series [1] was 90%.

As for `COc1cc(/C=C2\CCC/C(=C\c3cc(OC)c(OC)c(OC)c3Br)C2=NO)c(Br)c(OC)c1OC`, the pIC50 was 5.60 with PC-3; 5.60 in the series on NCI-H460; 5.68 in the series on HT-29; 5.54 in the series on MCF7; 5.59 with MIA PaCa-2; 5.59 in the series on A549. In addition, the pIC50 in the series with PANC-1 is 5.66. In addition, the viability at 96 h in series [1] turned out to be 95%.

In the case of `COc1cccc(/C=C2\CN(C)C/C(=C\c3cccc(OC)c3Cl)C2=O)c1Cl`, the pIC50 in the series with PC-3 is 5.31; in the series on NCI-H460, 5.40; in the series with HT-29 it was 5.36; with MCF7, 5.36; in the series with MIA PaCa-2, 5.34; with A549, 5.40. In the series on PANC-1, this compound showed a negative logarithm of the IC50 (pIC50) of 5.38. Also, in series [1], the viability at 96 h came out at 91%.

In the case of `COc1cc(/C=C2\COC/C(=C\c3cc(OC)c(OC)c(OC)c3Br)C2=O)c(Br)c(OC)c1OC`, the pIC50 was 5.34 with PC-3; 5.30 in the series with NCI-H460; 5.38 in the series with HT-29; 5.37 in the series with MCF7; 5.34 in the series with MIA PaCa-2; 5.39 in the series with A549. Besides, the pIC50 in the series on PANC-1 is 5.31. Also, the viability at 96 h in series [1] was determined as 92%.

For the compound `COc1cccc(/C=C2\COC/C(=C\c3cccc(OC)c3Cl)C2=O)c1Cl`, the pIC50 with PC-3 was 5.08; in the series on NCI-H460, 5.13; in the series with HT-29 it was 5.06; in the series with MCF7 it was 5.14; with MIA PaCa-2, 5.06; in the series on A549, 5.08. In the series on PANC-1, the pIC50 was 5.05. Besides, the viability at 96 h in series [1] was 88%.

With `COc1cccc(/C=C2\CC(C)C/C(=C\c3cccc(OC)c3Cl)C2=O)c1Cl` (configuration not stated), the pIC50 in the series on PC-3 was 5.41; with NCI-H460, 5.38; in the series on HT-29, 5.47; in the series with MCF7, 5.55; with MIA PaCa-2, 5.54; in the series on A549 it was 5.51. In addition, the pIC50 with PANC-1 was 5.48. In addition, in series [1], the viability at 96 h was 93%.
